{"source": "patent US20220347309A1", "about": "“PYRROLOBENZODIAZEPINE RESISTANCE” (ADC THERAPEUTICS SA, priority 2018, published 2022)", "key": {"[1]": {"test_system": "Karpas-299 wt cells", "test": "Single dose 2-hour exposure cytotoxicity (MTS)", "assay_type": "cell-based, human", "conditions": "130 pM ADCT-301 or 280 pM SG3199 for 2 hours, then 96 hours, vs untreated control"}, "[2]": {"test_system": "Karpas ADCr cells (ADCT-301 acquired resistant Karpas-299)", "test": "MTS in vitro cytotoxicity, 96 h continuous exposure", "protocol": "(§1) To generate a resistant population to either ADCT-301 or SG3199, human anaplastic large cell lymphoma Karpas-299 cells (expressing CD25) were incubated with an approximate IC50 dose of the drug for 96 hours. The cells were then washed and returned to fresh medium until normal cell growth was recovered. This process was repeated until a measurable and stable loss in cytotoxic efficacy was established using the MTS assay.\n(§2) To measure the in vitro cytotoxicity with the MTS assay, cells were incubated with a 10-fold dilution range of ADCT-301 or SG3199, and incubated with continuous exposure for 96 hours (at least three cell doubling times under normal cell culture conditions). After incubation the […] AQueous One Solution Cell Proliferation Assay (MTS) was used to measure growth inhibition, by adding 20 μl reagent to the cells and incubating for 3-4 hours, then reading the absorbance at 492 nm. Mean % growth of the ADC or PBD treated cells was calculated relative to an untreated control.\n(§3) To measure the cross-resistance of the Karpas ADCR cells to the SG3199 PBD warhead, and the PBDR cells to ADCT-301, the in vitro cytotoxicity assay was carried out as described above, treating the cells with the opposite drug molecule to the one with which they were generated.\n(§4) To measure the cross-resistance of the Karpas ADCR and PBDR cells to the PBD dimer warhead SG2000, the in vitro cytotoxicity (MTS) assay was carried out as previously described in Example 2."}, "[3]": {"test_system": "Karpas PBDr cells (SG3199 acquired resistant Karpas-299)", "test": "MTS in vitro cytotoxicity, 96 h continuous exposure", "protocol": "as §1, §2, §3, §4"}, "[4]": {"test_system": "Karpas-299 wt cells", "test": "DNA interstrand cross-linking, single cell gel electrophoresis (comet) assay", "assay_type": "cell-based, human", "conditions": "130 μM ADCT-301 or 280 μM SG3199 (figure legends: pM) for 2 hours, then 24 hours", "protocol": "The formation of inter-strand cross-links (ICLs) by either ADCT-301 or SG3199 was measured using a modification of the single cell gel electrophoresis (comet) assay (Spanswick V J, Hartley J M, Hartley J A. Measurement of DNA interstrand crosslinking in individual cells using the Single Cell Gel Electrophoresis (Comet) assay. Methods Mol Biol. 613, 267-82 (2010)). Cells were treated with […] ADCT-301 or […] SG3199 for 2 hours, then washed and incubated for 24 hours under normal cell culture conditions. All cells were irradiated with 18 Gy (5 Gy/min for 3.6 min). Comet slides were reviewed under a 20× objective on an epifluorescence microscope equipped with: Hg arc lamp; 580 nm dichroic mirror; and 535 nm excitation and 645 nm emission filters suitable for visualising of propidium iodide staining with a minimum of 50 Comet images acquired per treatment condition. The Olive Tail Moment (OTM) was determined as the product of the tail length and the fraction of total DNA in the tail as recorded by Komet 6 software (Andor Technology, Belfast, UK) and the percentage reduction in OTM calculated according to the formula:\n% decrease in tail moment=[1−(TMdi−TMcu)/(TMci−TMcu)]*100 • [TMdi=Tail Moment drug irradiated; TMcu=TM control un-irradiated; TMci=TM control irradiated]\nThe results are shown in FIG. 18 for the ADCR line and FIG. 19 for the PBDR line."}}}
{"smiles": "COc1cc2c(cc1OCCCCCOc1cc3c(cc1OC)C(=O)N1C=C(C)C[C@H]1C=N3)N=C[C@@H]1CC(C)=CN1C2=O", "note": "[SG3199]", "values": [{"measurement": "2 hr mean % growth", "setting": "[1]", "result": 33.8, "unit": "%"}, {"measurement": "fold resistance compared to wildtype", "setting": "[2]; Karpas ADCr vs Karpas wt IC50", "result": 4.4, "unit": "fold"}, {"measurement": "IC50", "setting": "[2]; read-out: IC50 pM, Karpas ADCr, 96 h continuous exposure, mean", "result": 306, "unit": "pM"}, {"measurement": "fold resistance compared to wildtype", "setting": "[3]; Karpas PBDr vs Karpas wt IC50", "result": 2.9, "unit": "fold"}, {"measurement": "IC50", "setting": "[3]; read-out: IC50 pM, Karpas PBDr, 96 h continuous exposure, mean", "result": 205, "unit": "pM"}, {"measurement": "% red. OTM (mean % reduction in Olive Tail Moment)", "setting": "[4]", "result": 55.5, "unit": "%"}]}
